For one data set, the target named is human Smo (Homo sapiens (Human), UniProt Q99835). Description: Smo radioligand competition binding assay. In short, it runs like this: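 Membranes from HEK293 cells expressing surface human Smo 181-781 (40 μg protein/well) incubated 2 h at room temperature with test compound and tritiated Smo antagonist (3 nM), pH 7.5 Tris buffer; filtration and scintillation counting. Non-specific binding defined with 30 μM cold antagonist; IC50 from four-parameter sigmoidal fit.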
Sequence of human Smo (Q99835 181-787): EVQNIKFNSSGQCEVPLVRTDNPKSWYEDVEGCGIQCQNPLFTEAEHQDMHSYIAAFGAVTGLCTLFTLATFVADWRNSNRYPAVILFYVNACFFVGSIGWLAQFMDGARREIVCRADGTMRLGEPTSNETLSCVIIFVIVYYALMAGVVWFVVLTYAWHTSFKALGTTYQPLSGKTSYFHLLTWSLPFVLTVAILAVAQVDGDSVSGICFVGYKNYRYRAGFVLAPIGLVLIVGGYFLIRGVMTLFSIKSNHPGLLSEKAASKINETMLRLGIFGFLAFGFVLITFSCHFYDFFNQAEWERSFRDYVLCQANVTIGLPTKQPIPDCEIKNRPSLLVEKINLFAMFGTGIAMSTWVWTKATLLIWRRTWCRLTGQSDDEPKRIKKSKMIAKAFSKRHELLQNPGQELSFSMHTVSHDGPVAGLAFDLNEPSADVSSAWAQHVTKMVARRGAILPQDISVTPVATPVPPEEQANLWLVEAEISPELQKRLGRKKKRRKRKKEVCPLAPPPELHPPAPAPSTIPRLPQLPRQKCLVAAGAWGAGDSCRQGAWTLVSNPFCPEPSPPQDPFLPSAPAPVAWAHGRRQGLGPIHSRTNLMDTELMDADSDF
(Loss of bound radioactivity is the signal in a displacement assay; it reports binding, not function.)

In the next data set the test system is Gli1. Description: Down regulation of Smo targeted gene Gli1 in the brain, primary medulloblastoma model. Conditions: Ptch1+/-p53-/- medulloblastoma mice, 30 mg/kg once daily for 4 days oral gavage, 6 hours post last dose. It counts as in vivo. Here is the method:
Down Regulation of Smo Targeted Gene Gli1 in the Brain by A-116
In this study, 6-week-old Ptch1+/−p53−/− primary medulloblastoma mice (n=3 per group) were treated with 30 mg/kg of A-116 or vehicle (0.5% methylcellulose (MC)) once daily for 4 days by oral gavage. On day 4, at 6 hours post last dose, mice were euthanized and tumor bearing cerebella were removed. Total RNA was extracted from the tumor tissue together with the cerebella using the RNeasy Mini Kit (Qiagen). Subsequently, cDNA was synthesized from the RNA using High Capacity cDNA Reverse Transcription Kit (Applied Biosystems) according to the protocol provided by the vendor. Quantitative real-time PCR analysis of Smo targeted gene Gli1 expression level was performed using RT-PCR ABI Prism 7900 sequence detection system (Applied Biosystems).

A short description of data set [1]: rat plasma protein binding. It counts as in vitro ADME. Particulars: previously determined.

pIC50: −log10 of the molar value.

With `Cc1cnc(-c2cc(N3CCN(C(=O)CCS(C)(=O)=O)CC3)ncc2Cl)c(C)c1` [Example A-116, 5′-chloro-3,5-dimethyl-2′-{4-[3-(methylsulfonyl)propanoyl]piperazin-1-yl}-2,4′-bipyridine], the pIC50 (as a rule, the IC50 on a negative log10 scale, so that one unit is a factor of ten) on human Smo was 8.17. The inhibition at 0.05 µM on human Smo (0.05 μM test compound, read-out: Smo % inh. @ 0.05 μM) amounted to 101%. In addition, in the data set with Gli1, the “Gli1 level, % of vehicle control” value is 4.5±0.4%. The fraction unbound – broadly, the share of the substance not bound to proteins or other matrix – in data set [1] was determined as 0.067.
